Assay results from patent publication EP3046573B1, “AMYLIN ANALOGUES” (Zealand Pharma A/S, priority 2013, dated 2015).
Numbered stars: 1 amine (or outer) side, 2 acyl side, 3 side chain; on linkers, the order of the positions; unused ones are H or OH. Bridge positions count the residues as written; N and C are the ends. Square brackets hold non-standard residues; d marks the D form. Peptide text beside a SMILES is read from it. * marks the point of attachment. C20 diacid = O=C(O)CCCCCCCCCCCCCCCCCCC(=O)*; γGlu = O=C(O)[C@H](CCC(=O)[*:2])N[*:1]; NMeI = CC[C@H](C)[C@H](NC)C(=O)O; Sar = CNCC(=O)O

Experiments:
[1] = Solubility assessment (turbidity absorbance at 325 nm); type: physicochemical; conditions: stock 2 mg/ml diluted 1:1, ambient temperature (typically 25°C), n=1; for Solubility, Acetate buffer pH 4: 100 mM acetate buffer pH 4.0; for Solubility, Acetate buffer pH 5: 100 mM acetate buffer pH 5.0; for Solubility, Histidine buffer pH 6: 100 mM histidine buffer pH 6.0; for Solubility, Histidine buffer pH 7: 100 mM histidine buffer pH 7.0; for Solubility, Phosphate buffer pH 6: 100 mM phosphate buffer pH 6.0; for Solubility, Phosphate buffer pH 7: 100 mM phosphate buffer pH 7.0; for Solubility, Phosphate buffer pH 7.5: 100 mM phosphate buffer pH7.5
In short: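 Turbidimetric screen across pH 4.0–7.5 in 100 mM acetate, histidine and phosphate buffers. A 2 mg/ml peptide stock (pH 2.5) was diluted 1:1 into each, then A325 measured at ambient temperature; values ≤ 0.02 AU denoted solubility of 1 mg/ml or more.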

[2] = target: T1, human calcitonin receptor (hCTR2) (Homo sapiens, UniProt P30988); experiment: hCTR2 assay: induction of cAMP (AlphaScreen cAMP Assay kit) in COS7 cells expressing hCTR2; type: cell-based; conditions: cAMP induction in COS7 cells expressing hCTR2; average of a minimum of 3 determinations; read-out: hCTR2 EC50
T1 construct: expressed in transfected cells
T1 sequence (P30988 25-474): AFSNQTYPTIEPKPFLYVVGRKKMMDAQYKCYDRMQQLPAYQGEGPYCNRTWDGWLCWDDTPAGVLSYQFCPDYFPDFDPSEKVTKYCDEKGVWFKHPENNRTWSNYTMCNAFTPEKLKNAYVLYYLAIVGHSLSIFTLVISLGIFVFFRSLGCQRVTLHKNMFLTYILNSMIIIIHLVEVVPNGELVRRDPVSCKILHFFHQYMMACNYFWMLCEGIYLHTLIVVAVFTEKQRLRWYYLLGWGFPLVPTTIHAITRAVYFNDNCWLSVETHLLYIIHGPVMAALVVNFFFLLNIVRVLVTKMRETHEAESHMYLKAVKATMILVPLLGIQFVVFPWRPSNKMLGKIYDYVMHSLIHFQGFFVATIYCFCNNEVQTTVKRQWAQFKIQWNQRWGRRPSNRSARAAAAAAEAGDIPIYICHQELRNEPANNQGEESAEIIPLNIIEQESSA
In short: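 cAMP read-out by AlphaScreen after cell lysis; EC50 and % efficacy vs pramlintide from 4-parameter logistic fitting. Agonist stimulation: hCTR2-COS7 stable cells, 15 min, 37° C, 100 µM IBMX, 0.1% casein, Tyrode/HEPES pH 7.4.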

[3] = target: T2, human amylin receptor 3 (hAMYR3) consisting of hCTR2 co-expressed with human Receptor Activity Modifying Protein 3 (hRAMP3) (Homo sapiens, UniProt O60896+P30988); experiment: hAMYR3 assay: induction of cAMP (AlphaScreen cAMP Assay kit) in COS7 cells expressing hAMYR3; type: cell-based; conditions: cAMP induction in COS7 cells expressing hAMYR3; average of a minimum of 3 determinations; read-out: hAMY R3 EC50
T2 construct: expressed in transfected cells
T2 sequence (P30988 25-474): T1 sequence (P30988 25-474)
T2 sequence (O60896 24-148 partner): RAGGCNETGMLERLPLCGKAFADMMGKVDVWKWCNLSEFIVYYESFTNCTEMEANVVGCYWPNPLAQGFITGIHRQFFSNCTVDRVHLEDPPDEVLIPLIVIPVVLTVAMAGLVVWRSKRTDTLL
In short: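 cAMP accumulation read by AlphaScreen in lysates of RAMP-naive COS7 cells stably transfected with hCTR2 plus hRAMP3. Cells exposed to peptide dilutions for 15 min, 37° C, with 100 µM IBMX; 4PL fitting gave EC50 and efficacy relative to pramlintide.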

Row | Solubility, Acetate buffer pH 4 [1] | Solubility, Acetate buffer pH 5 [1] | Solubility, Histidine buffer pH 6 [1] | Solubility, Histidine buffer pH 7 [1] | Solubility, Phosphate buffer pH 6 [1] | Solubility, Phosphate buffer pH 7 [1] | Solubility, Phosphate buffer pH 7.5 [1] | EC50 [2] | EC50 [3] | SMILES
1 | SS (SS indicates solubility ≥ 1mg/ml) | SS (SS indicates solubility ≥ 1mg/ml) | II (II indicates solubility ≤ 1 mg/ml) | SS (SS indicates solubility ≥ 1mg/ml) | SS (SS indicates solubility ≥ 1mg/ml) | II (II indicates solubility ≤ 1 mg/ml) | SS (SS indicates solubility ≥ 1mg/ml) | 150 pM | 300 pM | CC[C@H](C)[C@@H](C(=O)N[C@@H](CC(C)C)C(=O)N[C@@H](CO)C(=O)N[C@@H](CO)C(=O)N[C@H](C(=O)N[C@@H](CCC(=O)O)C(=O)N[C@H](C(=O)NCC(=O)N[C@@H](CO)C(=O)N[C@@H](CCC(=O)O)C(=O)N[C@H](C(=O)N1CCC[C@H]1C(N)=O)[C@@H](C)O)C(C)C)[C@@H](C)O)N(C)C(=O)[C@H](C)NC(=O)CN(C)C(=O)[C@H](Cc1ccccc1)NC(=O)[C@H](CO)NC(=O)[C@H](CO)NC(=O)[C@H](CO)NC(=O)[C@H](CO)NC(=O)[C@H](CCCNC(=N)N)NC(=O)[C@H](Cc1c[nH]cn1)NC(=O)[C@H](CC(C)C)NC(=O)[C@H](Cc1ccccc1)NC(=O)[C@H](CCC(=O)O)NC(=O)[C@H](C)NC(=O)[C@H](CC(C)C)NC(=O)[C@H](CCCNC(=N)N)NC(=O)[C@H](CC(C)C)NC(=O)[C@@H](NC(=O)[C@H](C)NC(=O)[C@@H]1CSSC[C@H](NC(=O)[C@H](CCCNC(=N)N)NC(=O)CC[C@H](NC(=O)CCCCCCCCCCCCCCCCCCC(=O)O)C(=O)O)C(=O)N[C@@H](CC(N)=O)C(=O)N[C@@H]([C@@H](C)O)C(=O)N[C@@H](C)C(=O)N[C@@H]([C@@H](C)O)C(=O)N1)[C@@H](C)O [Compound 121, [19CD]-isoGlu-RC()NTATC()ATLRLAEFLHRSSSSF-Gly(Me)-A-Ile(Me)-LSSTEVGSETP-NH2] ({C20 diacid-γGlu}-RCNTATCATLRLAEFLHRSSSSF[Sar]A[NMeI]LSSTEVGSETP-NH2; disulfide 2-7)
2 | SS (SS indicates solubility ≥ 1mg/ml) | SS (SS indicates solubility ≥ 1mg/ml) | SS (SS indicates solubility ≥ 1mg/ml) | SS (SS indicates solubility ≥ 1mg/ml) | SS (SS indicates solubility ≥ 1mg/ml) | SS (SS indicates solubility ≥ 1mg/ml) | SS (SS indicates solubility ≥ 1mg/ml) | 110 pM | 200 pM | CC[C@H](C)[C@@H](C(=O)N[C@@H](CC(C)C)C(=O)N[C@@H](CO)C(=O)N[C@@H](CO)C(=O)N[C@H](C(=O)N[C@@H](CCC(=O)O)C(=O)N[C@H](C(=O)NCC(=O)N[C@@H](CO)C(=O)N[C@@H](CCC(=O)O)C(=O)N[C@H](C(=O)N1CCC[C@H]1C(N)=O)[C@@H](C)O)C(C)C)[C@@H](C)O)N(C)C(=O)[C@H](C)NC(=O)CN(C)C(=O)[C@H](Cc1ccccc1)NC(=O)[C@H](CO)NC(=O)[C@H](CO)NC(=O)[C@H](CO)NC(=O)[C@H](CO)NC(=O)[C@H](CCCNC(=N)N)NC(=O)[C@H](Cc1c[nH]cn1)NC(=O)[C@H](CC(C)C)NC(=O)[C@H](Cc1ccccc1)NC(=O)[C@H](CCC(=O)O)NC(=O)[C@H](C)NC(=O)[C@H](CC(C)C)NC(=O)[C@H](CCCNC(=N)N)NC(=O)CNC(=O)[C@@H](NC(=O)[C@H](C)NC(=O)[C@@H]1CSSC[C@H](NC(=O)[C@H](CCCNC(=N)N)NC(=O)CC[C@H](NC(=O)CCCCCCCCCCCCCCCCCCC(=O)O)C(=O)O)C(=O)N[C@@H](CC(N)=O)C(=O)N[C@@H]([C@@H](C)O)C(=O)N[C@@H](C)C(=O)N[C@@H]([C@@H](C)O)C(=O)N1)[C@@H](C)O [Compound 122, [19CD]-isoGlu-RC()NTATC()ATGRLAEFLHRSSSSF-Gly(Me)-A-Ile(Me)-LSSTEVGSETP-NH2] ({C20 diacid-γGlu}-RCNTATCATGRLAEFLHRSSSSF[Sar]A[NMeI]LSSTEVGSETP-NH2; disulfide 2-7)
3 | SS (SS indicates solubility ≥ 1mg/ml) | SS (SS indicates solubility ≥ 1mg/ml) | SS (SS indicates solubility ≥ 1mg/ml) | SS (SS indicates solubility ≥ 1mg/ml) | SS (SS indicates solubility ≥ 1mg/ml) | SS (SS indicates solubility ≥ 1mg/ml) | SS (SS indicates solubility ≥ 1mg/ml) | 280 pM | 290 pM | CC[C@H](C)[C@@H](C(=O)N[C@@H](CC(C)C)C(=O)N[C@@H](CO)C(=O)N[C@@H](CO)C(=O)N[C@H](C(=O)N[C@@H](CCC(=O)O)C(=O)N[C@H](C(=O)NCC(=O)N[C@@H](CO)C(=O)N[C@@H](CCC(=O)O)C(=O)N[C@H](C(=O)N1CCC[C@H]1C(N)=O)[C@@H](C)O)C(C)C)[C@@H](C)O)N(C)C(=O)[C@H](C)NC(=O)CN(C)C(=O)[C@H](Cc1ccccc1)NC(=O)[C@H](CO)NC(=O)[C@H](CO)NC(=O)[C@H](CO)NC(=O)[C@H](CO)NC(=O)[C@H](CCCNC(=N)N)NC(=O)[C@H](Cc1c[nH]cn1)NC(=O)[C@H](CC(C)C)NC(=O)[C@H](Cc1ccccc1)NC(=O)[C@H](CCC(=O)O)NC(=O)[C@H](C)NC(=O)[C@H](CC(C)C)NC(=O)[C@H](CCCNC(=N)N)NC(=O)[C@@H](NC(=O)[C@@H](NC(=O)[C@H](C)NC(=O)[C@@H]1CSSC[C@H](NC(=O)[C@H](CCCNC(=N)N)NC(=O)CC[C@H](NC(=O)CCCCCCCCCCCCCCCCCCC(=O)O)C(=O)O)C(=O)N[C@@H](CC(N)=O)C(=O)N[C@@H]([C@@H](C)O)C(=O)N[C@@H](C)C(=O)N[C@@H]([C@@H](C)O)C(=O)N1)[C@@H](C)O)[C@@H](C)O [Compound 123, [19CD]-isoGlu-RC()NTATC()ATTRLAEFLHRSSSSF-Gly(Me)-A-Ile(Me)-LSSTEVGSETP-NH2] ({C20 diacid-γGlu}-RCNTATCATTRLAEFLHRSSSSF[Sar]A[NMeI]LSSTEVGSETP-NH2; disulfide 2-7)
